Here are results for 23 compounds from ChEMBL document CHEMBL4007510, “N6-Substituted 5'-N-Methylcarbamoyl-4'-selenoadenosines as Potent and Selective A3 Adenosine Receptor Agonists with Unusual Sugar Puckering and Nucleobase Orientation” (J Med Chem, 2017).

In one data set the target is T1, Adenosine receptor A1 (Homo sapiens, UniProt P30542).
T1 sequence (P30542 whole entry): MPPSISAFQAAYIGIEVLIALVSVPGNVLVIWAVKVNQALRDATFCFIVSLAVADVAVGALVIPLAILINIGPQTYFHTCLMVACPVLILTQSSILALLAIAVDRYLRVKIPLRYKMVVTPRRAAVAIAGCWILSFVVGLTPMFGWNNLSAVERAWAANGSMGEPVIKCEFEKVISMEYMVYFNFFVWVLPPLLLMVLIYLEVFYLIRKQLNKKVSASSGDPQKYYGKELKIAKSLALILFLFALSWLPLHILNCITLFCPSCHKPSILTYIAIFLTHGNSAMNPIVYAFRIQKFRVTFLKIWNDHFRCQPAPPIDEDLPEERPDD
Kind of data set: Displacement of […] from human adenosine A1 receptor expressed in CHO cells after 60 mins by liquid scintillation analyzer. Format: cell-based. For orientation: In a radioligand displacement assay an active substance lowers the binding of a labelled ligand.

Data set [1] deals with T2, Adenosine receptor A2a (Homo sapiens, UniProt P29274). In words: Displacement of [3H]CGS21680 from human adenosine A2A receptor expressed in HEK293 cells after 60 mins by liquid scintillation analyzer. Format: cell-based.
Data set [2] has as its target T3, Adenosine receptor A3 (Homo sapiens, UniProt P0DMS8).
T3 sequence (P0DMS8 whole entry): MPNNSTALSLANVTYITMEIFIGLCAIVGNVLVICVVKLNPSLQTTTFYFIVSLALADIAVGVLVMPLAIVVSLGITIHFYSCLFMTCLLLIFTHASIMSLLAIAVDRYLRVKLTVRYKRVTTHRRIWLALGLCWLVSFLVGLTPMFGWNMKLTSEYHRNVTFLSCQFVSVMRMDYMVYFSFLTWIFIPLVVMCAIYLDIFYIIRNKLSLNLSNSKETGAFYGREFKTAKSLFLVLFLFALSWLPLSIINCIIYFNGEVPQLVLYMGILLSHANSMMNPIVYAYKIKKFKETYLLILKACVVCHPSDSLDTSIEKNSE
In words: Displacement of [125I]I-AB-MECA from human adenosine A3 receptor expressed in CHO cells after 60 mins by gamma counting analysis. Format: cell-based.

For data set [3], the target named is T4, Adenosine receptor A3 (Homo sapiens) (UniProt P0DMS8).
T4 sequence (whole entry): T3 sequence (P0DMS8 whole entry)
Kind of data set: Agonist activity at human adenosine A3 receptor expressed in CHO cells assessed as decrease in forskolin induced cAMP formation preincubated for 10 mins followed by forskolin challenge measured after 15 mins by AlphaScreen assay relative to adenosine-5'-N- ethyluronamide. Format: functional, cell-based. Further details: concentration or dose not given beside the values.

The target in data set [4] is T3, Adenosine receptor A3. In words: Agonist activity at human adenosine A3 receptor expressed in CHO cells assessed as decrease in forskolin induced cAMP formation preincubated for 10 mins followed by forskolin challenge measured after 15 mins by AlphaScreen assay. Format: functional, cell-based. A general note: cAMP levels reflect the balance of adenylyl cyclase and phosphodiesterase activity.

A further data set has as its system Microglia. Kind of data set: Antimigratory activity in Sprague-Dawley rat microglial cells assessed as inhibition of MCP-1 mediated cell migration at 100 nM after 20 mins by inverted confocal microscopy. The class given is functional, cell-based.
Data set [5] in a line: Cytotoxicity against Sprague-Dawley rat microglial cells assessed as effect on cell viability up to 50 uM after 24 hrs by presto blue assay. The class given is cell-based. Conditions: microglia.
Data set [6] can be described thus: Cytotoxicity against human MRC9 up to 20 uM. The class given is cell-based.
The target of data set [7] is T5, Adenosine receptor A1 (Homo sapiens) (UniProt P30542).
T5 sequence (whole entry): T1 sequence (P30542 whole entry)
Kind of data set: Displacement of […] from human adenosine A1 receptor expressed in CHO cells at 10 uM after 60 mins by liquid scintillation analyzer relative to control. Format: cell-based.

Data set [8] concerns the target T2, Adenosine receptor A2a. In words: Displacement of [3H]CGS21680 from human adenosine A2 receptor expressed in HEK293 cells at 10 uM after 60 mins by liquid scintillation analyzer relative to control. The class given is cell-based.

Broadly, the Ki is the dissociation constant of the complex between target and ligand, obtained from inhibition or displacement. Broadly, the EC50 is the concentration needed to bring the measured effect to its halfway point. For orientation: inhibition means the change of the read-out against control, counted positive when it falls.

Activity calls are given as the source filed them. The calls are words filed in the database; no cut-off is given here.

T2 sequence (P29274 whole entry): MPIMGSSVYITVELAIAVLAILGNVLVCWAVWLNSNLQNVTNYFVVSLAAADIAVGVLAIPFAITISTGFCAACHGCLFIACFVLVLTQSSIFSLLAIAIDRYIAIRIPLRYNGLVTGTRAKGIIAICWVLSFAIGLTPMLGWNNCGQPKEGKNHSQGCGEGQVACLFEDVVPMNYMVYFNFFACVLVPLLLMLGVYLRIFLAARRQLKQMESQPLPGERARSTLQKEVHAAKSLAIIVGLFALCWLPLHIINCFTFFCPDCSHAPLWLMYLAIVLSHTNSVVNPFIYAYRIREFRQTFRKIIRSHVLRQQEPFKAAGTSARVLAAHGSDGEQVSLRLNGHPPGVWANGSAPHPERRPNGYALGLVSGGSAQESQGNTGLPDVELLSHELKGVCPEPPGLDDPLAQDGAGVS

Consider `CNC(=O)[C@H]1[Se][C@@H](n2cnc3c(NCc4ccccc4Cl)ncnc32)[C@H](O)[C@@H]1O`, for which the inhibition constant Ki on Adenosine receptor A1 came to 1090 nM; on Adenosine receptor A2a [1], 1160 nM; on Adenosine receptor A3 [2] it was 4.41 nM. For the same compound, the Activity in [3] stood at 85%.
The like results for `CNC(=O)[C@H]1[Se][C@@H](n2cnc3c(NCc4cccc(Br)c4)nc(Cl)nc32)[C@H](O)[C@@H]1O` were, in that order, 156 nM, 1230 nM, 1.99 nM and 106%.
The corresponding values for `CNC(=O)[C@H]1[Se][C@@H](n2cnc3c(NCc4ccc5ccccc5c4)ncnc32)[C@H](O)[C@@H]1O` are 440 nM, 195 nM, 1.76 nM and 109%.
On to `CNC(=O)[C@H]1[Se][C@@H](n2cnc3c(NCc4cccc(I)c4)ncnc32)[C@H](O)[C@@H]1O`, for which the results for the inhibitory constant (Ki) at Adenosine receptor A1, at Adenosine receptor A2a [1] and at Adenosine receptor A3 [2] were 480 nM, 1080 nM and 0.57 nM, respectively. For the same compound, the Activity is 91% in data set [3], “Non-Toxic” in data set [5] and “Non-Toxic” in data set [6]. Besides, the EC50 at Adenosine receptor A3 [4] is 2.7 nM. The inhibition result in the data set on Microglia is “Active”.
Consider `CNC(=O)[C@H]1[Se][C@@H](n2cnc3c(NC4CCC4)nc(Cl)nc32)[C@H](O)[C@@H]1O`, for which the inhibition constant (Ki) on Adenosine receptor A1 was 61.7 nM; at Adenosine receptor A2a [1] it was 899 nM; at Adenosine receptor A3 [2], 1 nM. The Activity in data set [3] was 86.7%.
The corresponding values for `CNC(=O)[C@H]1[Se][C@@H](n2cnc3c(NC4CCCC4)ncnc32)[C@H](O)[C@@H]1O` are 25.2 nM, 1090 nM, 7.07 nM and 77%.
`CNC(=O)[C@H]1[Se][C@@H](n2cnc3c(NCc4cccc(Cl)c4)ncnc32)[C@H](O)[C@@H]1O`: the Ki was determined as 570 nM on Adenosine receptor A1, 555 nM at Adenosine receptor A2a [1] and 3.45 nM at Adenosine receptor A3 [2]. Moreover, the Activity in data set [3] is 80%; in [6], “Non-Toxic”.
With `CNC(=O)[C@H]1[Se][C@@H](n2cnc3c(NCc4cccc(F)c4)nc(Cl)nc32)[C@H](O)[C@@H]1O`, the affinity on Adenosine receptor A3 [2] corresponds to a Ki of 3.35 nM. The inhibition amounted to 37.3% in data set [7] and 42% at Adenosine receptor A2a [8]. Besides, the Activity in data set [3] is 106%.
On to `CNC(=O)[C@H]1[Se][C@@H](n2cnc3c(NCc4cccc(I)c4)nc(Cl)nc32)[C@H](O)[C@@H]1O`, for which the inhibition constant (Ki) was found to be 311 nM on Adenosine receptor A1, 1200 nM on Adenosine receptor A2a [1] and 4.2 nM on Adenosine receptor A3 [2]. Also, in data set [3], the Activity was 94.1%.
As for `CNC(=O)[C@H]1[Se][C@@H](n2cnc3ncnc(NCc4cccc(I)c4)c32)[C@H](O)[C@@H]1O`, the affinity at Adenosine receptor A3 [2] corresponds to a Ki of 4180 nM. In addition, the results for the inhibition (in data set [7]; at Adenosine receptor A2a [8]) were 26% and 13%, respectively. Further, in data set [3], the Activity came out at 0.2%.
Consider `CNC(=O)[C@H]1[Se][C@@H](n2cnc3c(N[C@@H]4C[C@H]4c4ccccc4)ncnc32)[C@H](O)[C@@H]1O`, for which the Ki worked out at 420 nM at Adenosine receptor A1, 2480 nM at Adenosine receptor A2a [1] and 3.93 nM on Adenosine receptor A3 [2]. Moreover, the Activity in data set [3] is 89%.
For the compound `CNC(=O)[C@H]1[Se][C@@H](n2cnc3c(NC)ncnc32)[C@H](O)[C@@H]1O`, the Ki at Adenosine receptor A1 was determined as 2060 nM; at Adenosine receptor A3 [2] it was 1.49 nM. The same compound showed an inhibition on Adenosine receptor A2a [8] of 18%. Moreover, the Activity in data set [3] is 108%.
The compound `CNC(=O)[C@H]1[Se][C@@H](n2cnc3nc(Cl)nc(NCc4cccc(I)c4)c32)[C@H](O)[C@@H]1O` gave a Ki on Adenosine receptor A3 [2] of 7360 nM. The inhibition turned out to be 7% in data set [7] and 23% on Adenosine receptor A2a [8]. The Activity in data set [3] came out at 14%.
Consider `CNC(=O)[C@H]1[Se][C@@H](n2cnc3c(NC4CCCC4)nc(Cl)nc32)[C@H](O)[C@@H]1O`, for which the Ki on Adenosine receptor A1 came out at 59.4 nM; on Adenosine receptor A2a [1], 1120 nM; at Adenosine receptor A3 [2] it was 3.56 nM. For the same compound, in data set [3], the Activity turned out to be 92.5%.
`CNC(=O)[C@H]1[Se][C@@H](n2cnc3c(NC4CCC4)ncnc32)[C@H](O)[C@@H]1O`: the Ki on Adenosine receptor A1 came out at 37.5 nM; at Adenosine receptor A2a [1], 1080 nM; at Adenosine receptor A3 [2], 1.39 nM. The Activity in [3] came to 82%.
As for `CNC(=O)[C@H]1[Se][C@@H](n2cnc3c(NCc4cccc(Br)c4)ncnc32)[C@H](O)[C@@H]1O`, the Ki at Adenosine receptor A1 worked out at 220 nM; on Adenosine receptor A2a [1], 560 nM; at Adenosine receptor A3 [2], 0.9 nM. For the same compound, the figures for the Activity in data set [3] and in [6] were 91% and “Non-Toxic”, respectively.
Regarding `CNC(=O)[C@H]1[Se][C@@H](n2cnc3c(NCc4cccc(F)c4)ncnc32)[C@H](O)[C@@H]1O`, the inhibition constant Ki on Adenosine receptor A1 came out at 3310 nM; at Adenosine receptor A2a [1] it was 1350 nM; on Adenosine receptor A3 [2] it was 2.3 nM. Also, the Activity in data set [3] was 74%; in [6], “Non-Toxic”.
As to `CNC(=O)[C@H]1S[C@@H](n2cnc3c(NCc4cccc(I)c4)ncnc32)[C@H](O)[C@@H]1O`, the Activity in [3] was found to be 100%.
For the compound `CNC(=O)[C@H]1[Se][C@@H](n2cnc3c(NCc4ccccc4OC)ncnc32)[C@H](O)[C@@H]1O`, the Ki on Adenosine receptor A1 was determined as 1880 nM; on Adenosine receptor A2a [1], 1260 nM; on Adenosine receptor A3 [2], 3.75 nM. Moreover, in data set [3], the Activity was found to be 97%.
`CNC(=O)[C@H]1[Se][C@@H](n2cnc3c(NC4CC4)ncnc32)[C@H](O)[C@@H]1O`: the Ki was 83.5 nM on Adenosine receptor A1 and 2.49 nM at Adenosine receptor A3 [2]. This compound showed an inhibition at Adenosine receptor A2a [8] of 54%. In addition, in data set [3], the Activity was 92%.
On to `CNC(=O)[C@H]1S[C@@H](n2cnc3c(NCc4cccc(I)c4)nc(Cl)nc32)[C@H](O)[C@@H]1O`, for which, in the data set with Microglia, the inhibition result was “Active”. Further, the Activity entry in data set [5] is recorded as “Non-Toxic”.
As to `CNC(=O)[C@H]1[Se][C@@H](n2cnc3c(NCc4cccc(Cl)c4)nc(Cl)nc32)[C@H](O)[C@@H]1O`, the values for the Ki on Adenosine receptor A1, at Adenosine receptor A2a [1] and at Adenosine receptor A3 [2] were 232 nM, 238 nM and 1.96 nM, respectively. Also, the Activity in [3] was determined as 99.7%.
Consider `CNC(=O)[C@H]1[Se][C@@H](n2cnc3c(NC4CC4)nc(Cl)nc32)[C@H](O)[C@@H]1O`, for which the inhibition constant Ki on Adenosine receptor A1 is 186 nM; on Adenosine receptor A3 [2], 1.9 nM. This compound came in with an inhibition at Adenosine receptor A2a [8] of 30.3%. Further, the Activity in data set [3] is 83.6%.
